This assay deals with Pseudomonas aeruginosa ATCC 9027. The assay can be described thus: Challenge Test for the Evaluation of Preservative Capacity of Liquid Detergent and Personal Products. Format: cell-based. The settings on record: aqueous formula, each active component 5%, pH 7.6. On the procedure:
Experiments were conducted to evaluate antimicrobial activity against Pseudomonas aeruginosa of aqueous formulas containing sodium hydroxyethyl sulfonate, sodium cocoyl glycinate and combinations of these two materials. Samples were prepared at room temperature by mixing together sodium cocoyl glycinate and/or sodium hydroxyethyl sulfonate and water. The pH was adjusted by addition of aqueous hydrochloric acid to reach a 7.6 value. Amounts of each of the active components was 5%. Challenge Test for the Evaluation of Preservative Capacity of Liquid Detergent and Personal Products Pseudomonas aeruginosa ATCC 9027 obtained from American Type Culture Collection, Manassas, Va. 20108. 20 grams of product were inoculated with 0.2 ml of the microorganism at a level of 1.06E+07 or Log 7. A single inoculation was performed. At 2 day, 7 day, 14 day and 21 day time points after inoculation a 1 gram sample was aseptically removed into a neutralizing fluid (TAT Broth) and plated using Letheen Agar. The plates were incubated at 30° C. for 7 days. At the end of the incubation time the plates were removed and examined for microbial growth. The microorganisms recovered were converted into Log10 and compared to initial inoculum count which then determined the Log Reduction. Logarithmic functions are the inverse of exponential functions. Log reduction was determined by the initial inoculum count minus the counts at each sampling time point.

Setting [1] is: 2 day after single inoculation (1.06E+07, Log 7).
[2] abbreviates: 7 day after single inoculation (1.06E+07, Log 7).
Setting [3] is: 14 day after single inoculation (1.06E+07, Log 7).
[4] abbreviates: 21 day after single inoculation (1.06E+07, Log 7).

On to `O=S(=O)([O-])CCO.[Na+]` [Sodium Hydroxyethyl Sulfonate, sodium hydroxyethyl sulfonate], for which the “Log Reduction Value” by setting is: under setting [1], 1.1; under setting [2], 0.9; under setting [3], 0.8; under setting [4], 0.5.
Regarding sodium cocoyl glycinate, the “Log Reduction Value” was 1.1 under setting [1], 1.1 under setting [2], 0.8 under setting [3] and 0.2 under setting [4].

These data come from patent US8470883B2, “Preservative system and composition based on glycinate and hydroxyethyl sulfonate salt combination” (Conopco, Inc., priority 2010, dated 2013).
